Measurements reported in patent publication US6541483B2, “Acridone-derived compounds useful as antineoplastic and antiretroviral agents” (The United States of America as represented by the …, priority 1996, dated 2003).
Where two headings read alike, the source gives them in different places.

Tests used:
HIV-1 = assay: XTT cytoprotection assay in CEM-SS cells (antiviral EC50); type: cell-based
Description: (§1) Briefly, the infected cells in culture are killed by the virus, and the cytotoxicity is detected by the formation of color due to the […] of a formazan dye (XTT) by enzymes released by the dying cells (Weislow et al., J. Natl. Cancer Inst. 81:577-586, 1989). An effective antiviral drug is able to protect the infected cells from cytotoxicity by inhibiting some vital function of the virus. […] FIGS. 4 and 5 show the cytoprotective activity of WMC26 and WMC42. Since many drugs can also be toxic to cells in their own right, a parallel experiment is carried out wherein uninfected cells are treated with the drugs until a concentration is reached where the cells are killed by the action of the drug.
(§2) As a result of these preliminary data, additional experiments were carried out to establish the antiviral activity in other cell lines, using a variety of protocols. The preliminary experiments in lymphocytes were confirmed using infected macrophages. Much more extensive experiments were carried out in HIV-1-infected CEM SS leukemia cells. […] However, two derivatives were found which had low antileukemic activity while maintaining high antiviral activity. […] This gives a therapeutic index of more than 3 orders of magnitude. The corresponding therapeutic index for WMC50 is about 100-200, which is quite acceptable. Additional experiments were carried out on WMC-70. […] Further, WMC-70 appears to affect post-transcription events in the virus. […] While the inhibition of integration appears to be the principal mechanism by which this compound exerts its antiviral activity, there are perhaps other mechanisms which are also involved in the therapeutic action of this drug, and by extension, of other antiviral drugs of this class.
(§3) The antiviral properties of the WMC series of compounds were evaluated. First, all compounds were tested for their ability to inhibit HIV-1 replication in cell culture using the XTT cytoprotection assay. This assay measures the concentration-dependent capacity of compounds to protect CEM-SS cells from the cytopathic effects of HIV-1. […] Thus, temacrazine was the most efficacious compound in the XTT cytoprotection assay. This conclusion was also reached when the compounds were tested for anti-HIV-1 activity against HIV-1ADA in human monocyte/macrophage cultures (Table 1).

CEM-SS cells [1] = assay: XTT assay toxicity in CEM-SS cells (IC50); type: cell-based; settings: for IC50: Homo sapiens, CEM-SS cells
Description: as §1, §2, §3

[2] = system: human monocyte/macrophage cultures; assay: toxicity in monocyte/macrophage cultures; type: cell-based; settings: human monocyte/macrophage cultures; read-out: Mo/Mφ IC50
Procedure: as §3

[3] = molecular target: HIV-1 reverse transcriptase (Human immunodeficiency virus type 1 group M subtype B, UniProt P04585); assay: reverse transcriptase enzyme activity; type: biochemical
Description: (§4) Based on the findings thus far our efforts have focused on biological assays of the temacrazine congener.

HIV-1 protease = HIV-1 protease (Human immunodeficiency virus type 1 group M subtype B, UniProt P04585); assay: Pr55gag processing assay with recombinant protease; type: biochemical; settings: enzyme pretreated one hour at 37° C.
Procedure: However, to insure that the HPLC-based assay (used in Table 1) was providing accurate findings, the action of temacrazine in the Gag processing assay was evaluated. In this assay, purified recombinant HIV-1 protease enzyme was pretreated with the test reagent for one hour at 37° C., and then exposed the recombinant Pr55^gag precursor polyprotein to the treated enzyme.

[4] = molecular target: p7 nucleocapsid protein zinc fingers (Human immunodeficiency virus type 1 group M subtype B, UniProt P04591); assay: p7NC zinc finger fluorescence assays (TSQ, Trp37); type: biochemical, HIV-1
Description: as §4

[5] = system: HIV-1 proviral DNA formation (LTR/gag); assay: time course assay of proviral DNA formation; type: cell-based; settings: amplified LTR/gag region
HIV-1 in ACH-2 cells = assay: TNFα stimulated latently infected ACH-2 cells, virus production; type: cell-based; settings: Human immunodeficiency virus 1, 72 h, read-out: EC50, inhibition of HIV-1 virus replication (virion-associated p24)
Procedure: In a similar study, cells were either treated for 24h with TNFα followed by the addition of temacrazine, or temacrazine and TNFα were added simultaneously, or temacrazine was added 24 h […] TNFα addition. After TNFα induction and temacrazine treatment, cultures were continued for 72 h after which virion-associated p24 and cell viability (XTT dye reduction) were measured.

[6] = system: HIV-1 LTR-directed chloramphenicol acetyltransferase (CAT) activity; assay: LTR-directed CAT activity in BF-24 cells; type: cell-based; settings: 24 h, temacrazine up to 5 μM
Description: Initiation and regulation of HIV-1 transcription requires a complex series of interactions with cellular transcription factors, such as NFkB, SP-1 and AP-1, and the participation of cellular factors in the transcriptional complex. In addition, the post-integrative model used here requires TNFα stimulated U1 and ACH-2 cells, this model requires not only the participation of the NFkB transcriptional complex, and also components of the TNFα signaling pathway. In order to rule out that temacrazine was non-specifically effecting transcription or down-regulating replication by interfering with the TNFα signal pathway, LTR-directed chloramphenicol acetyltransferase (CAT) activity was measured in BF-24 cells. BF-24 cells are derived from the THP-1 monocytic cell line and carry a stably integrated CAT gene under the transcriptional control of the HIV-1 LTR (S. Schwartz, et al., Proc. Natl. Acad. Sci. USA 86:7200 (1989); B. K. Felber, et al., Science 239:184 (1988)). The LTR in this monocytic cell line is inducible by IL-6, PMA and TNFα, and produces enzymatically active chloramphenicol transferase (“CAT”). […]
CAT activity was determined using a fluorescent Bodipy conjugated chloramphenicol after 18 h of reaction with 50 μg of protein extract containing Acetyl CoA.

CEM-SS cells [7] = assay: 3H precursor incorporation in CEM-SS cells; type: cell-based
HIV-1 mRNA = assay: RT-PCR of HIV-1 mRNA expression and splicing after TNFα induction; type: cell-based
Procedure: Similar results were seen when temacrazine and TNFα were added simultaneously.
As a control the house keeping gene porphobilinogen deaminase (Hydroxymethylbilane synthase, “PBGD”) was amplified to determine uniformity of loading.

HIV-1 specific mRNA = assay: Northern blotting of total HIV-1 mRNA in U-1 cells; type: cell-based; settings: TNFα stimulated U-1 cells
Description: To assess the possibility that temacrazine was regulating HIV-1 mRNA expression, the expression of total HIV-1 mRNA by Northern blotting was examined (FIG. 16).

HIV-1 virus = assay: direct treatment of HIV-1 virus, infection of CEM cells; type: cell-based
Procedure: as §2

## O=c1c2ccccc2n2nnc3ccc(NCCCN4CCN(CCCNc5ccc6nnn7c8ccccc8c(=O)c5c67)CC4)c1c32 [temacrazine]
HIV-1; CEM SS cells
  therapeutic index: more than 3 orders of magnitude
HIV-1; HIV-1-infected CEM SS leukemia cells
  cytoprotective activity: cytoprotective at very low concentrations
HIV-1; Human immunodeficiency virus 1, CEM-SS, read-out: EC50 (inhibits the cytotoxic effect of the virus to 50%)
  EC50: < 1 nM
HIV-1; Human immunodeficiency virus 1, CEM-SS, read-out: XTT Assay EC50
  EC50: 1.1 nM
HIV-1; Human immunodeficiency virus 1, CEM-SS cells, read-out: EC50 antiviral value, XTT cytoprotection assay
  EC50: 1.1 nM
CEM-SS cells [1]; CEM SS cells
  concentration at which the drug kills 50% of the cells: greater than micromolar concentrations
CEM-SS cells [1]; Table 1, read-out: XTT Assay IC50
  IC50: 2770 nM
CEM-SS cells [1]; read-out: IC50 toxicity value, XTT assay
  IC50: 2770 nM
[2]
  IC50: 10000 nM
[3]
  IC50: > 100000 nM
  inhibition of reverse transcriptase: did not inhibit
[3]; read-out: I50 RT Enzyme Activity, rAdT Template/primer
  IC50: > 100000 nM
[3]; read-out: I50 RT Enzyme Activity, rCdG Template/primer
  IC50: > 100000 nM
HIV-1 protease
  inhibition of protease in Gag processing assay: had no inhibitory effect
[4]
  damage of the gag protein zinc finger: did not damage
[5]
  formation of proviral DNA during reverse transcription: did not prevent the formation of proviral DNA
HIV-1 in ACH-2 cells
  EC50: 10 to 100 nM
[6]
  CAT induction by TNFα: did not significantly alter CAT induction
CEM-SS cells [7]
  incorporation of 3H Leucine (protein metabolism): no effect
  incorporation of 3H Thymidine (DNA replication): no effect
CEM-SS cells [7]; CEM-SS cells
  incorporation of 3H Uridine (RNA production): no effect
HIV-1 mRNA
  PBGD (house keeping gene) expression: did not decrease
HIV-1 mRNA; 500 and 50 nM, prior to or 24 h after TNFα induction
  expression of unspliced or singly spliced mRNA: completely inhibited
HIV-1 mRNA; RT-PCR, rev independent mRNAs
  expression of HIV-1 multispliced transcripts: did not alter
HIV-1 specific mRNA; 1 nM
  HIV-1 specific mRNA production: decrease in single spliced and unspliced mRNA with no apparent decrease in the multi-spliced mRNA
HIV-1 specific mRNA; 10 and 100 nM
  HIV-1 specific mRNA production: suppressed mRNA production globally
HIV-1 virus
  infectivity of drug-treated HIV-1 virus: appeared to prevent its ability to infect CEM cells
